Measurements published in ChEMBL document CHEMBL1201862, “PubChem BioAssay data set” (2004).
Active and inactive are the calls of the source.

Key:
[1] = target: G-protein coupled receptor 55 (Homo sapiens, UniProt Q9Y2T6); assay: inhibition of LPI-stimulated GPR55 beta-arrestin translocation – imaging, U2OS, beta-arrestin-GFP, LPI agonist, primary screen (AID 2013); assay type: functional;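 note: antagonist potency measured as reduced agonist-driven arrestin aggregation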
[2] = target: T1, Heat shock factor protein 1 (Mus musculus, UniProt P38532); assay: enhancement of HSF1-driven luciferase signal – cell-based, NIH3T3, luminescence, dose retest, confirmation (AID 435004); assay type: functional;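 note: stress induced by proteasome inhibitor MG132 added 30 min after compound; luciferase reporter driven by HSF1 response element in NIH3T3 cells; actives raise luminescence as potentiators of the MG132 stress response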
T1 sequence (P38532 whole entry): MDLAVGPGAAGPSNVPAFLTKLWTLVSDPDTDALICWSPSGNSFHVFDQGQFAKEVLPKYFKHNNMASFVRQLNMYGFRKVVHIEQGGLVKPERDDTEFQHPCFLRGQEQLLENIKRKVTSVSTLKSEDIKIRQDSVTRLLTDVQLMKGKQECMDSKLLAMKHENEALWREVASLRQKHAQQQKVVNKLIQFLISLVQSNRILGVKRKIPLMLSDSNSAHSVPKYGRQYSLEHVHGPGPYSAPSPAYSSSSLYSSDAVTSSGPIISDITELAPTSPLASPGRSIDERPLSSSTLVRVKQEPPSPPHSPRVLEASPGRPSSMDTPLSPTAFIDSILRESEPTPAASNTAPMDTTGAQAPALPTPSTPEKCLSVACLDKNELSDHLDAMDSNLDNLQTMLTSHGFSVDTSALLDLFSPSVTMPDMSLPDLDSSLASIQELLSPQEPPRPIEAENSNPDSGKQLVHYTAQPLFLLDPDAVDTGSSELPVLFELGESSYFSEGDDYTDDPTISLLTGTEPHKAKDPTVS

[3] = viability inhibitors of stage V gametocytes – luminescence, dose response (AID 1117278); assay type: functional, cell-based;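 note: gametocytes exposed to compound for 24 hours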
[4] = viability loss in human Jurkat cells – cell-based, luminescence, cytotoxicity control for P. falciparum gametocyte viability project, dose response (AID 1117277); assay type: functional;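 note: potency reflects loss of cellular ATP meaning fewer viable cells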
[5] = target: Peroxisome proliferator-activated receptor gamma/Nuclear receptor coactivator 1 (Homo sapiens, UniProt P37231); assay: (§1) TR-FRET dose response biochemical High Throughput Screening assay for agonists of the steroid receptor coactivator 1 (SRC-1) recruitment by the peroxisome proliferator-activated receptor gamma (PPAR gamma): non-selective agonists. [Related pubchem assays (depositor defined):AID1300, AID1808, AID504735, AID631]; assay type: protein assay
[6] = target: Peroxisome proliferator-activated receptor gamma/Nuclear receptor coactivator 3 (Homo sapiens, UniProt P37231); assay: as §1, with “3 (SRC-3)” for “1 (SRC-1)”, “assays: 1301 (Confirmation screen.), 1048 (Primary screen.)]” for “assays (depositor defined):AID1300, AID1808, AID504735, AID631]”; assay type: functional
[7] = target: Peroxisome proliferator-activated receptor gamma/Nuclear receptor coactivator 2 (Homo sapiens, UniProt P37231); assay: TR-FRET dose response biochemical High Throughput Screening assay for agonists of the steroid receptor coactivator 2 (SRC-2) recruitment by the peroxisome proliferator-activated receptor gamma (PPAR gamma): non-selective agonists. [Related pubchem assays: 1297, 1032 ]; assay type: functional
[8] = target: T2, Ubiquitin-conjugating enzyme E2 N (Homo sapiens, UniProt P61088); assay type: functional;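 note: Dose-response confirmation in a TR-FRET assay detecting UBC13-driven polyubiquitin chain formation, inhibition measured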
T2 sequence (P61088 whole entry): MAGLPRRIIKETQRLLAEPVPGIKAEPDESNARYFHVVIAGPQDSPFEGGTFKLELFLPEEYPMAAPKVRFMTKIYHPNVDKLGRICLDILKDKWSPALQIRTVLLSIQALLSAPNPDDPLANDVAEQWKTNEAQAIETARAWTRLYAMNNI

[9] = target: Mu-type opioid receptor (Homo sapiens, UniProt P35372); assay type: functional, cell-based;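 note: U2OS cells with beta-arrestin recruitment to OPRM1 by beta-gal complementation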
[10] = target: 5-hydroxytryptamine receptor 2A (Mus musculus, UniProt P35363); assay type: functional, cell-based;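 note: CHO-K1 cells with tagged receptor and beta-arrestin; agonist potency measured as compound-induced activation of the receptor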
[11] = target: Large T antigen (Simian virus 40, UniProt P03070); assay type: functional, Betapolyomavirus macacae;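 note: Confirmatory-stage PubChem screen for compounds that inhibit SV40 T antigen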
[12] = target: Induced myeloid leukemia cell differentiation protein Mcl-1 (Homo sapiens, UniProt Q07820); assay: blockers of MCL1 binding to BIM peptide – biochemical, fluorescence polarization, BIM-BH3 peptide, 1536-well, dose response (AID 2217)
[13] = target: Bcl-2-like protein 1 (Homo sapiens, UniProt Q07817); assay: blockers of BCLXL peptide binding – biochemical, fluorescence polarization, 1536-well, selectivity assay for MCL1 inhibitor project, dose response (AID 2218)
[14] = system: HeLa; assay: viability loss in HeLa cells – cell-based, 24 h, cherry-picked samples, cytotoxicity control, dose response (AID 504726); assay type: functional; conditions: Homo sapiens;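 note: potency for cytotoxicity as loss of luminescence signal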
[15] = target: ORF 73 (Human herpesvirus 8, UniProt O40947); assay: KSHV LANA DNA-binding disruption – biochemical, fluorescence polarization, cherry-picked samples, dose response (AID 504725); parameters: species or system Human gammaherpesvirus 8;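 note: fluorescence polarization of a labeled DNA duplex reporting LANA DNA binding; potency is for inhibitors that block LANA binding to the DNA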
[16] = target: Intestinal-type alkaline phosphatase (Mus musculus, UniProt P24822); assay: PubChem AID 488785; assay type: functional
[17] = target: T3, Alkaline phosphatase, tissue-nonspecific isozyme (Homo sapiens, UniProt P05186); assay: TNAP enzyme inhibition by screening hits, dose response, selectivity assay for mouse IAP inhibitor project, biochemical, human TNAP, uHTS hits (AID 488906); assay type: functional
T3 sequence (P05186 whole entry): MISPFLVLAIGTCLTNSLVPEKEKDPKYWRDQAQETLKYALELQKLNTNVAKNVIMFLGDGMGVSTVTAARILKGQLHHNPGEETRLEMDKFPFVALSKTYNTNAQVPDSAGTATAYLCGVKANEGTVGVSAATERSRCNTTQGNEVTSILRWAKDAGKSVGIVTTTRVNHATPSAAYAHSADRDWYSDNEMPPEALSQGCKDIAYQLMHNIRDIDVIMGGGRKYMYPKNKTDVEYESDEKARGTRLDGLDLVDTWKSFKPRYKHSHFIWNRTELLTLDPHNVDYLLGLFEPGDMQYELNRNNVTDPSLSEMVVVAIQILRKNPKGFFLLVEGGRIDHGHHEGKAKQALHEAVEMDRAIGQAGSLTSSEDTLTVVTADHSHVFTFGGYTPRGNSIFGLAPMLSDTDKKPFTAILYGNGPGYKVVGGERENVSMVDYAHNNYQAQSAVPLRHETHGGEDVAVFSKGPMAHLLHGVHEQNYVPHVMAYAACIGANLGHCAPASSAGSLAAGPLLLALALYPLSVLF

[18] = target: Intestinal-type alkaline phosphatase (Homo sapiens, UniProt P09923); assay: inhibition of human intestinal alkaline phosphatase – biochemical, dose response (AID 488876); assay type: functional
[19] = target: Genome polyprotein (dengue virus type 2, UniProt P29990); assay: flavivirus cap methylation enzyme inhibition – biochemical, confirmation dose response, primary screen (AID 588689); assay type: functional
[20] = target: T4, Histone-lysine N-methyltransferase NSD2 (Homo sapiens, UniProt O96028); assay type: biochemical
T4 sequence (O96028 whole entry): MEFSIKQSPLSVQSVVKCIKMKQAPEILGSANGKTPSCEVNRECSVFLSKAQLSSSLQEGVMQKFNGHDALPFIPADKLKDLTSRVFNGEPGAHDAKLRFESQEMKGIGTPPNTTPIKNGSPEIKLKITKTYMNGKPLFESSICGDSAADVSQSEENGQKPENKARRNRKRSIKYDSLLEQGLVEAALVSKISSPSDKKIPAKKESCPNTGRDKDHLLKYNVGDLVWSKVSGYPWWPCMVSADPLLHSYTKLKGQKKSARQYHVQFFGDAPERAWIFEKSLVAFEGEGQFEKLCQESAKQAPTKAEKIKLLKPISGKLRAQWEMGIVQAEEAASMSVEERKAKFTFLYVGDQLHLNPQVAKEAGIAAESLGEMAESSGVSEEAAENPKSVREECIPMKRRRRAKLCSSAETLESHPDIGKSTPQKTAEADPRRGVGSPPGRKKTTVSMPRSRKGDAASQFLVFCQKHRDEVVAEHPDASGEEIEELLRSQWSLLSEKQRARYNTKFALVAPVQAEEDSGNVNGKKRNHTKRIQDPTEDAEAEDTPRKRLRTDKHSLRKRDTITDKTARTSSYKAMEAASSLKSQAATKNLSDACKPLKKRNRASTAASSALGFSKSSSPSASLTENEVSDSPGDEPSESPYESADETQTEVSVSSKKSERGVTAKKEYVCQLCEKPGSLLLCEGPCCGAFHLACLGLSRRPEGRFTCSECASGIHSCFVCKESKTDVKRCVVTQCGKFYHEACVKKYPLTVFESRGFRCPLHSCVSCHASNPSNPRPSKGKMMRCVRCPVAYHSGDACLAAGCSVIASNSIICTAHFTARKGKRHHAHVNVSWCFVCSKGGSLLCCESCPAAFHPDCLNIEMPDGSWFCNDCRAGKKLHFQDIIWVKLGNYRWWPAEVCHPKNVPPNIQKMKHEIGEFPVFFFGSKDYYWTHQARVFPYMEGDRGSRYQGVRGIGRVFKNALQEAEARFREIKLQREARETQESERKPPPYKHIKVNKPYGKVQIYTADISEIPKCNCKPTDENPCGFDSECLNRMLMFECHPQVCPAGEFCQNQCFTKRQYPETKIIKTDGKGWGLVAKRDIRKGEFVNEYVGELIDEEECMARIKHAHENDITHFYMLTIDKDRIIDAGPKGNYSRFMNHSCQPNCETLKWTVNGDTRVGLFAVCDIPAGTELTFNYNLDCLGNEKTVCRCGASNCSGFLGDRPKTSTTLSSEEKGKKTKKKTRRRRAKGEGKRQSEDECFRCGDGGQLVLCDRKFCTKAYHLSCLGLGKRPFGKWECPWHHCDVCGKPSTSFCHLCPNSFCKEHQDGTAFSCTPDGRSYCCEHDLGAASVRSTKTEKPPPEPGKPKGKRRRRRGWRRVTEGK

[21] = target: 1-phosphatidylinositol 4,5-bisphosphate phosphodiesterase gamma-1 (Homo sapiens, UniProt P19174); assay: Counterscreen for inhibitors of phospholipase C isozymes (PLC-B3): Fluorescence-based biochemical high throughput dose response assay to identify inhibitors of phospholipase C isozymes (PLC-gamma1).
[22] = target: 1-phosphatidylinositol 4,5-bisphosphate phosphodiesterase beta-3 (Homo sapiens, UniProt Q01970); assay: Fluorescence-based biochemical high throughput dose response assay to identify inhibitors of phospholipase C isozymes (PLC-B3).
[23] = target: Troponin, cardiac muscle (Homo sapiens, UniProt P19429+P45379+P63316); assay: Fluorescence-based biochemical high throughput dose response assay for activators of the calcium sensitivity of cardiac Regulated Thin Filaments (RTF). [Related pubchem assays (depositor defined):AID493008, AID493018, AID504382, AID504383]; assay type: protein-complex assay
[24] = BJeHLT cell viability loss – BJeHLT cells, dry powder, counter-screen for Ras selective lethality project, dose response (AID 493052); assay type: functional, cell-based; conditions: Homo sapiens
[25] = DRD BJ cell killing, Ras synthetic lethality – DRD BJ fibroblasts, HRASV12, dry powder, dose response (AID 493049); assay type: functional, cell-based
[26] = HRAS-V12 fibroblast viability reduction – cell-based, Alamar Blue, dry powder, Ras selective lethality project, primary screen (AID 493045); assay type: functional; conditions: BJeLR
[27] = BJeH cell viability loss – BJeH cells, dry powder, counter-screen for Ras selective lethality project, dose response (AID 493054); assay type: functional, cell-based
[28] = target: T5, Coagulation factor XII (Homo sapiens, UniProt P00748); assay type: functional;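 note: activated factor XIIa alpha cleaving a fluorogenic AMC peptide substrate; inhibitor potency from loss of enzyme activity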
T5 sequence (P00748 whole entry): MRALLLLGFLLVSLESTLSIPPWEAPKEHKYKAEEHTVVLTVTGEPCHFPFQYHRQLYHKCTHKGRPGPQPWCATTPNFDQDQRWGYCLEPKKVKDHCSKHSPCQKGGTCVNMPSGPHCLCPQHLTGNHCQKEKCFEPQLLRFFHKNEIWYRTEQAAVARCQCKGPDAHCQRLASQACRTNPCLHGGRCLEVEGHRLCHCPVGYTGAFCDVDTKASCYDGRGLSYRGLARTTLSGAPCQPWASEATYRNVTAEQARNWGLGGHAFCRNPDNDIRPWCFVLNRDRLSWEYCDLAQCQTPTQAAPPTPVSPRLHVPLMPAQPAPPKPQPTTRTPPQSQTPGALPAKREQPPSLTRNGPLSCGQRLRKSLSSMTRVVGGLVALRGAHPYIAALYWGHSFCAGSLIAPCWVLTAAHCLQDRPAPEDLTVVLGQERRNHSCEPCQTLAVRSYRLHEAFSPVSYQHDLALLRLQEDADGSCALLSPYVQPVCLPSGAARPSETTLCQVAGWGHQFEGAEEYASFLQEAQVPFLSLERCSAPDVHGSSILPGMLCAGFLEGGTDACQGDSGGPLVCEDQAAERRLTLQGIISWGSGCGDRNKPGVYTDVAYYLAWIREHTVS

Induced myeloid leukemia cell differentiation protein Mcl-1, sequence (Q07820 whole entry): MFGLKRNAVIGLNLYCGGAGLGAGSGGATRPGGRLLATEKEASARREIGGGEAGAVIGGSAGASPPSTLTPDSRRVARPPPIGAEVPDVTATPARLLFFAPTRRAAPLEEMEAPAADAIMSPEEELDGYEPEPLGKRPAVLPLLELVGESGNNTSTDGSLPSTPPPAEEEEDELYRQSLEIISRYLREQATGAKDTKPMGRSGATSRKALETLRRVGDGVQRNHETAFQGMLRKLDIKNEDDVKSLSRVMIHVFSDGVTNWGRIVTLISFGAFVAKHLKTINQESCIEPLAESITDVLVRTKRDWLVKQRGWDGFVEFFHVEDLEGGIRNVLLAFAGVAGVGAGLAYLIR
Mu-type opioid receptor, sequence (P35372 whole entry): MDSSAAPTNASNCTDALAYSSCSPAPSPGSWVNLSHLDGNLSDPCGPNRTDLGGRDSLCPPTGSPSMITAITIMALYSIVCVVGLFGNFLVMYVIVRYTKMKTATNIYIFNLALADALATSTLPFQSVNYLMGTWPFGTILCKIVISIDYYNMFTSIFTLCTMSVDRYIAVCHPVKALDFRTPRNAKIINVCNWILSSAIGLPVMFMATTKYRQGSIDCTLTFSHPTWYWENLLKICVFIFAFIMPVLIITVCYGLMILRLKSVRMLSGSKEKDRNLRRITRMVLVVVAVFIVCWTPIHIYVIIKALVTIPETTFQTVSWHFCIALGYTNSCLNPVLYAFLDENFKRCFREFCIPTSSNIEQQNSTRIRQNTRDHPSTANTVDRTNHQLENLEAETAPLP
1-phosphatidylinositol 4,5-bisphosphate phosphodiesterase beta-3, sequence (Q01970 whole entry): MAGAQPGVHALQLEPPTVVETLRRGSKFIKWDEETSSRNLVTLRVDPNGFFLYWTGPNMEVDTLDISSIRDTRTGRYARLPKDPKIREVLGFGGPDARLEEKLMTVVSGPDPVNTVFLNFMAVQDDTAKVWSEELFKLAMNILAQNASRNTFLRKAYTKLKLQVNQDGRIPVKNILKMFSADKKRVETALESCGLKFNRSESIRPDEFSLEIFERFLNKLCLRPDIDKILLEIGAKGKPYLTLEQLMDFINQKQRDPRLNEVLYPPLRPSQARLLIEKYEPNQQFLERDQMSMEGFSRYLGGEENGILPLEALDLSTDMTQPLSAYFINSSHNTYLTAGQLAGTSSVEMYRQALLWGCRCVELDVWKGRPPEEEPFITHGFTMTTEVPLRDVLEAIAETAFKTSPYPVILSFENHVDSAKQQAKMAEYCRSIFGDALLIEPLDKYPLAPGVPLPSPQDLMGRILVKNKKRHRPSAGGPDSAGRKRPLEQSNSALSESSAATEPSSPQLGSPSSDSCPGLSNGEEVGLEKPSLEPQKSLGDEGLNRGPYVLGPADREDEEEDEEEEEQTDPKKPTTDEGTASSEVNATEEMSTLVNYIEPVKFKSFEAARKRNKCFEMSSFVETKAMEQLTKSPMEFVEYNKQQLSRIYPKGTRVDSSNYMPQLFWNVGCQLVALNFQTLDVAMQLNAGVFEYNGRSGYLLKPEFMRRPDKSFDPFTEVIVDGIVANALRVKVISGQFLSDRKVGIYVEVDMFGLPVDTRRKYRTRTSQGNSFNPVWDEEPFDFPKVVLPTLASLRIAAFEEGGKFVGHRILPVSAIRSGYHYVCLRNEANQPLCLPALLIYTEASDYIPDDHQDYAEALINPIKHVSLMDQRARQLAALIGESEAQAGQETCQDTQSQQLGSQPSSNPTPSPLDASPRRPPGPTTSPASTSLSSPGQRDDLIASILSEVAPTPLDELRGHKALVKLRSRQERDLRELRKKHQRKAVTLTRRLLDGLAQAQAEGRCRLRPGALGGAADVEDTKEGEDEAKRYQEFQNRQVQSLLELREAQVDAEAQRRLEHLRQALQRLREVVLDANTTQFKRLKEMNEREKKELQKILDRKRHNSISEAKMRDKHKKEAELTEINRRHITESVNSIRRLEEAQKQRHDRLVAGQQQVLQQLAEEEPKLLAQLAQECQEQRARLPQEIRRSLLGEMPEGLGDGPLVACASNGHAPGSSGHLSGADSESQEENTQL
Bcl-2-like protein 1, sequence (Q07817 whole entry): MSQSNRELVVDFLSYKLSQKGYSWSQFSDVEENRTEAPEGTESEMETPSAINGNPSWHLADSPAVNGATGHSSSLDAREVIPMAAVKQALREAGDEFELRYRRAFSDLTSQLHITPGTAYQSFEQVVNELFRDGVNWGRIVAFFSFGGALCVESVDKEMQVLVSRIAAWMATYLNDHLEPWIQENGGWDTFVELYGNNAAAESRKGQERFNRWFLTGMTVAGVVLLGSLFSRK
5-hydroxytryptamine receptor 2A, sequence (P35363 whole entry): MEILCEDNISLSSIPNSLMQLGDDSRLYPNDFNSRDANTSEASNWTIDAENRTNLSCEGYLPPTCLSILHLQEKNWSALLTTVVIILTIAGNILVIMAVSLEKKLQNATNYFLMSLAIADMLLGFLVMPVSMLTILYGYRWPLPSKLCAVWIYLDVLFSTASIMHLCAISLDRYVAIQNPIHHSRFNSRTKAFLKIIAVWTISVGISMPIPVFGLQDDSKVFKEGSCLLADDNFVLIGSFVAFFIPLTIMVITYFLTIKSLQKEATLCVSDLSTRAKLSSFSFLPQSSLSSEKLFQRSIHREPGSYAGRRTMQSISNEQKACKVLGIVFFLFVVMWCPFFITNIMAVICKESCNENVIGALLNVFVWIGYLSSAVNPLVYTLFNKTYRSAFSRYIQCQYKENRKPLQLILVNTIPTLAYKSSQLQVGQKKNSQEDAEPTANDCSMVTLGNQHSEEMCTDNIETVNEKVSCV
Intestinal-type alkaline phosphatase (Homo sapiens, UniProt P09923), sequence (P09923 whole entry): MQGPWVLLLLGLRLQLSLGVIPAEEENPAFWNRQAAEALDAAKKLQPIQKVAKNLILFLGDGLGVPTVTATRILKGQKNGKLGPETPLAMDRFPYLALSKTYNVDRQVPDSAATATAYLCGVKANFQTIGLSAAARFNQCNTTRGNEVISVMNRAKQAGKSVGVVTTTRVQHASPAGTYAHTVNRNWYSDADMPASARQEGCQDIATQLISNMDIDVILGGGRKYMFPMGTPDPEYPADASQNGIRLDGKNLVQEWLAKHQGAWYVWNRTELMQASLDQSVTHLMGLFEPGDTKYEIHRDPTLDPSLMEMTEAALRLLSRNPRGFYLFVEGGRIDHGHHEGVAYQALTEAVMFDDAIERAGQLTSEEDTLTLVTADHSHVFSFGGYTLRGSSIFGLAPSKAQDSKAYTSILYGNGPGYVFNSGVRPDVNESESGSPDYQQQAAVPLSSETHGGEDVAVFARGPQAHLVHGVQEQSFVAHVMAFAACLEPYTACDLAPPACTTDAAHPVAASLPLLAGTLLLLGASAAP
Large T antigen, sequence (P03070 whole entry): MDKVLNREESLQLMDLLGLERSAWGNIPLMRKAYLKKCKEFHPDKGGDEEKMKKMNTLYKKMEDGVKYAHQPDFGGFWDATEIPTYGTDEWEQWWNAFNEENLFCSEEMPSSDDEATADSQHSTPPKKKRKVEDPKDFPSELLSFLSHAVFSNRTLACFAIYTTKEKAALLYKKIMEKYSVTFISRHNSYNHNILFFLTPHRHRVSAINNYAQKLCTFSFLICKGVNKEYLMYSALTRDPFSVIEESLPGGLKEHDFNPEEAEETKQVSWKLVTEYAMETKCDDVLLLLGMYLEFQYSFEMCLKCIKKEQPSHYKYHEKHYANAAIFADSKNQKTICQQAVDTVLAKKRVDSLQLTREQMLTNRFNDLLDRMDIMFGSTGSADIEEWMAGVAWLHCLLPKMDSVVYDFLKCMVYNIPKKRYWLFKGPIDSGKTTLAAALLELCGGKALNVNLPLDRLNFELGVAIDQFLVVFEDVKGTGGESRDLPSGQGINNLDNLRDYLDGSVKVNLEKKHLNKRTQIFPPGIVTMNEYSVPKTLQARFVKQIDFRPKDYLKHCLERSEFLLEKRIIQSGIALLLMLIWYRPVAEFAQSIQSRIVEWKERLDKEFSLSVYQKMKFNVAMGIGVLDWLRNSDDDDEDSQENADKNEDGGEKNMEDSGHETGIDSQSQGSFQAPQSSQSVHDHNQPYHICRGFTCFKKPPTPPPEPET
Intestinal-type alkaline phosphatase (Mus musculus, UniProt P24822), sequence (P24822 whole entry): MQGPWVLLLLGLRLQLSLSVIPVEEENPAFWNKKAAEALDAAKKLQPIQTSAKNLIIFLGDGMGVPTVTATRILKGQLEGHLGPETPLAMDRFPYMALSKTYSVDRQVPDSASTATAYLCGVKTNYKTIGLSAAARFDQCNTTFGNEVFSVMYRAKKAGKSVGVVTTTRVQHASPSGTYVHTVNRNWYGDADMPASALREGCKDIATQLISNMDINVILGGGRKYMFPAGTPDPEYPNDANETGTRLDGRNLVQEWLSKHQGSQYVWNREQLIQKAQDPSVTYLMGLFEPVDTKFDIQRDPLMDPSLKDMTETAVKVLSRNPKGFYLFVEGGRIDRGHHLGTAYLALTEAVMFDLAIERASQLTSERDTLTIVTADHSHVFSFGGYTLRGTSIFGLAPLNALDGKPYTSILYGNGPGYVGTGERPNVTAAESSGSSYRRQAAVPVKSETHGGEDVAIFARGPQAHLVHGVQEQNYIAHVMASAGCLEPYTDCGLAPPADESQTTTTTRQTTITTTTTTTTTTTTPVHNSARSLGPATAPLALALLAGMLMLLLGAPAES
G-protein coupled receptor 55, sequence (Q9Y2T6 whole entry): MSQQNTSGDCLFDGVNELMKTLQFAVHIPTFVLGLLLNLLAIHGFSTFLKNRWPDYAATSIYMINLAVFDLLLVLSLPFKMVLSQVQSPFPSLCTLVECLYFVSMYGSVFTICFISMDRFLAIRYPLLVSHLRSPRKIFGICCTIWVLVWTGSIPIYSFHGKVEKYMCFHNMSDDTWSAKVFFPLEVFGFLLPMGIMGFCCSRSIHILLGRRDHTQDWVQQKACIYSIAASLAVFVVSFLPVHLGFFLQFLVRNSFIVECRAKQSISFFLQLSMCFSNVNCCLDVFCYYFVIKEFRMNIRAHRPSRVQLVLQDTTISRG

## N#CCC(=O)Nc1ccc(C(=O)OCC(=O)Nc2ccccc2Sc2ccccc2)cc1
[1]
  IC50: 2.17 µM (active)
[2]
  EC50: > 260 µM (inactive)
[3]
  IC50: > 109 µM (inactive)
[4]
  IC50: > 83.3 µM (inactive)

## CCn1c(=O)cc(SCC(=O)NCCCN2CCN(c3ccccc3F)CC2)c2ccccc21
[5]
  EC50: > 79.4 µM (inactive)
[6]
  EC50: > 79.4 µM (not active)
[7]
  EC50: > 79.4 µM (not active)
[8]
  IC50: > 20 µM (inactive)
[9]
  EC50: 92.6 µM (inactive)
[10]
  EC50: 0.0169 µM (active)

## O=C(CN1C(=O)/C(=C/c2ccco2)SC1=S)Nc1ccc(O)c(C(=O)O)c1
[11]
  IC50: 54.3 µM (active)
[12]
  IC50: 18.5 µM (not active)
[13]
  IC50: > 109 µM (not active)
[14]
  AC50: > 350 µM (inactive)
[15]
  AC50: 98.5 µM (active)
[16]
  IC50: 5.86 µM (active)
[17]
  IC50: 15.1 µM (active)
[18]
  IC50: 13.2 µM (active)
[19]
  IC50: > 100 µM (active)
[20]
  AC50: > 20 µM (inactive)
[21]
  IC50: > 122 µM (inactive)
[22]
  IC50: > 122 µM (inactive)

## CCOC(=O)c1sc(N)c(C#N)c1COC(=O)CNC(=O)c1cc(OC)c(OC)c(OC)c1
[23]
  EC50: 11.1 µM (inactive)

## COc1ccc(N(C(=O)CCl)C(C(=O)NC2CCCCC2)c2cccs2)cc1Cl (stereo not drawn)
[24]
  AC50: 0.27 µM (active)
[25]
  AC50: 0.12 µM (active)
[26]
  AC50: 0.113 µM (active)
[27]
  AC50: 0.455 µM (active)

## CC(=O)Nc1nonc1NC(=O)CSc1ccccn1
[28]
  IC50: > 50 µM (inactive)

## COc1ccc(N(C(=O)CCl)C(C(=O)NCn2nnc3ccccc32)c2cccs2)cc1Cl (stereo not drawn)
[24]
  AC50: 0.242 µM (active)
[25]
  AC50: 0.097 µM (active)
[26]
  AC50: 0.102 µM (active)
[27]
  AC50: 0.432 µM (active)

## CCOc1cc(/C=N/n2cnnc2)cc(Br)c1O
[28]
  IC50: > 50 µM (inactive)
